Source: patent US20230272464A1, “MODIFIED NUCLEOTIDES AND METHODS FOR DNA AND RNA POLYMERIZATION AND SEQUENCING” (SeNA Research, Incorporated, priority 2019, published 2023)

Tests used:
Assay type in all cases: biochemical
[1] = PCR of two target fragments with added 2-Se-TTP (agarose gel); conditions: target fragments 268bp, 405bp; 2-Se-TTP additionally added
Excerpt: No bands were found in two blank groups. Thus, incorporation of 2-Se-TTP can effectively reduce the non-specific bands in PCR.

[2] = target: Klenow fragment of DNA polymerase I (Escherichia coli, UniProt P00582); test: Polymerization using TTP or 2-Se-TTP (denatured PAGE)
Excerpt: The 30-nt DNA products made from the polymerization using TTP and 2-Se-TTP refer to full-length product in FIGS. 2B and 2C, respectively. […] Results of thermal dynamic calculation (FIG. 18) are consistent with the denatured PAGE. The initial reaction rate ratio (TTP vs 2-Se-TTP) was around 1.24.

DNA polymerase = DNA polymerase (Escherichia coli, UniProt P00582); test: Misincorporation of 2-Se-TTP: extension with each dNTP except dCTP; conditions: dCTP not present; up to 30 minutes
Procedure: Experiments to examine the misincorporation of 2-Se-TTP were conducted as follows. Broadly, enzymatic extension reactions were performed using each naturally occurring dNTP except dCTP, knowing that misincorporations of TTP in place of dCTP are commonly the cause of decreased fidelity in DNA replications.

Taq DNA polymerase = Taq DNA polymerase (Thermus aquaticus, UniProt P19821); test: PCR with dNTPαS I: suppression of nonspecific product
Excerpt: Compared to Bst DNA polymerase, Taq DNA polymerase is used much more widely, such as in polymerase chain reaction (PCR).
To test universality of suppression effect of dNTPαS I on nonspecific product, we checked 5 new pairs of primers (primer pair a, b, c, d, e) and 3 types of templates (plasmid, total human cDNA and human genome) with native dNTPs or S-modified dNTPs (FIG. 13). […] Further, S-dNTP can inhibit nonspecific amplification and increase specific product when amplifying simple plasmid template (FIG. 13B). Furthermore, when amplifying complex template (cDNA or genome), reactions using S-dNTP could exact specific product which can not be synthesized using all native dNTPs (FIG. 13B).

[3] = plasmid and total cDNA templates

Chain of Taq DNA polymerase (P19821 whole entry): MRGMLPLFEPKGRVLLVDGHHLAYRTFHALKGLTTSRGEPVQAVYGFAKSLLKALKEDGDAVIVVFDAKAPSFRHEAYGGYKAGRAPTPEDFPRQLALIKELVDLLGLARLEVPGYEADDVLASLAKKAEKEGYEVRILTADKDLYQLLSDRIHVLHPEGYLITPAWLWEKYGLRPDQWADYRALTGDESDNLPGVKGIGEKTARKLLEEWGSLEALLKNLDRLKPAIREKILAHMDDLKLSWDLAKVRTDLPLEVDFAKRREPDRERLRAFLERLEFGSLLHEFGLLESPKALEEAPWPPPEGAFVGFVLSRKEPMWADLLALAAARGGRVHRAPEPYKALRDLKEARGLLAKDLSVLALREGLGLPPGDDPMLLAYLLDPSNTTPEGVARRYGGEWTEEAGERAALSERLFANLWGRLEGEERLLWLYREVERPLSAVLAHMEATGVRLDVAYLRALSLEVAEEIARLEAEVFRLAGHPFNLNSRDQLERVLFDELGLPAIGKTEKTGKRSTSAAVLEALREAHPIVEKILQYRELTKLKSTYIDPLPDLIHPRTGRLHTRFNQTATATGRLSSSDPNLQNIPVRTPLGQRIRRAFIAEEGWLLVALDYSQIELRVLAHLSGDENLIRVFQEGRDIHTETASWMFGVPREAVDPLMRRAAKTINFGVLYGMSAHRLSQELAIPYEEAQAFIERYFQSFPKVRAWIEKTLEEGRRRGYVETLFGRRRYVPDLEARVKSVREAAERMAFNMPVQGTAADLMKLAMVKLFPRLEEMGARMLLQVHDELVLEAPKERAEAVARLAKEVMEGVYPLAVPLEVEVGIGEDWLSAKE
Chain of DNA polymerase (P00582 324-928): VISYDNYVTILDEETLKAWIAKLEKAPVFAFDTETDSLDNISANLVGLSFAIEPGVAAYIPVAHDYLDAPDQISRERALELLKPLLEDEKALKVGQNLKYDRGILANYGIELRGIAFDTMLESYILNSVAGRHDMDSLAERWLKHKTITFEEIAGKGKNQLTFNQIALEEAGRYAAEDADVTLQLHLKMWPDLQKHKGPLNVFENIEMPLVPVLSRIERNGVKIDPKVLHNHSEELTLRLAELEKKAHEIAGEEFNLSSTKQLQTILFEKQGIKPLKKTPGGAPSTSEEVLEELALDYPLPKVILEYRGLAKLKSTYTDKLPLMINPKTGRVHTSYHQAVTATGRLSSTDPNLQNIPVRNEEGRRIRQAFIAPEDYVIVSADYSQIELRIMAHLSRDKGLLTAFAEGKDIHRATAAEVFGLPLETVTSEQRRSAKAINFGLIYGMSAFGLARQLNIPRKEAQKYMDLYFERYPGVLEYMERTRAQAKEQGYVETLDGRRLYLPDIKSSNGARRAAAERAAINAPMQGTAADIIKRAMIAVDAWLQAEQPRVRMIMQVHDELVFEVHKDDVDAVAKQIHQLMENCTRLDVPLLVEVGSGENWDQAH
Chain of Klenow fragment of DNA polymerase I (P00582 324-928): as above

In the case of `Cc1cn([C@H]2C[C@H](O)[C@@H](COP(=O)(O)OP(=O)(O)OP(=O)(O)O)O2)c(=[Se])[nH]c1=O` [Compound 2-Se-TTP, 2-Se-dTTP], the “bands in PCR (nonspecific amplification)” value [1] is reported as “clean and specific bands”, the “initial reaction rate ratio (TTP vs 2-Se-TTP)” value ([2]; Klenow fragment) is reported as “around 1.24” and the “recognition by the Klenow fragment” value ([2]; compared with TTP) is reported as “relatively well recognized”. For the same compound, the “misincorporation in place of dCTP (full-length product)” value (DNA polymerase) was “little to no full-length product”.
With `Nc1ccn([C@H]2C[C@H](O)[C@@H](COP(O)(=S)OP(=O)(O)OP(=O)(O)O)O2)c(=O)n1` (some centres unmarked) [S-dCTP] the “suppression of nonspecific product in PCR” value (“suppression” for short) (Taq DNA polymerase; 5 primer pairs, plasmid, total human cDNA and human genome templates) was “nearly completely suppressed”.
With `Cc1cn([C@H]2C[C@H](O)[C@@H](COP(=O)(O)OP(=O)(O)OP(=O)(O)O)O2)c(=O)[nH]c1=O` [TTP, reference compound] the “misincorporation in place of dCTP (full-length product)” value (DNA polymerase) was “incorporated into the DNA primer sequence in a significant amount”.
For `Nc1ccn([C@H]2C[C@H](O)[C@@H](COP(O)(=S)OP(=O)(O)OP(=O)(O)O)O2)c(=O)n1` (some centres unmarked) [dCTPαS I], the “suppression” value (Taq DNA polymerase; [3]) was “suppressed nonspecific product nearly completely”.
In the case of `Nc1nc2c(ncn2C2CC(O)C(COP(O)(=[Se])OP(=O)(O)OP(=O)(O)O)O2)c(=O)[nH]1` (centres unmarked) [dGTPαSe I], the “suppression” value (Taq DNA polymerase; [3]) is reported as “suppressed nonspecific product nearly completely”.
